# Reference: patent publication US11523610B2, “Regulating plant growth using a diapocarotenoid” (King Abdullah University of Science and Technology, priority 2018, dated 2022)
# Assays:
# [1] = system: Arabidopsis collet transcriptome; experiment: RNA-Seq of collet transcriptome; format: in vivo; conditions: collets
# Description: For anchorene and NPA treatment, Col-0 seedlings were vertically grown on half MSO (with 0.5% sucrose+1% agar, 0.5 g/L MES, pH 5.7) plates supplemented with 20 μM anchorene or 1 μM NPA for 5 days. RAM excision treatment was applied by excising the RAM from 4.5-day old Col-0 seedlings, and then tissue was collected 12 hours after excision (5 DAG). About 2 mm of tissue at the collet site (see FIG. 11I) was collected at 5 DAG for all chemicals and physical treatment. Tissue from approximately 50 seedlings were used for each sample. Total RNA was extracted by Direct-zolTM RNA MiniPrep Plus (200 Preps) w/Zymo-Spin™ (ZYMO research). 100 ng total RNA were used for RNA Hi-seq 4000 (ILLUMINA). Each treatment includes three independent replicates.
# Prior to the analysis of RNA-Seq data, the adaptor sequences and low-quality ends of sequenced reads were trimmed using Trimmomatic v0.32 and quality-checked using FastQC v0.11 (www.bioinformatics.babraham.ac.uk/projects/fastqc). To quantify the expression level of genes, the remaining reads were pseudo-aligned to the publicly available TAIR10 A. thaliana transcriptome (release 34) using kallisto v0.43.0. The estimated read counts and calculated transcripts per million (TPM) were subsequently passed to sleuth v0.28.1 for differential expression analysis. […] Gene ontology and KEGG pathway enrichment analyses were conducted using clusterProfiler and Pathview. RNA-Seq data can be accessed at NCBI via BioProject ID PRJNA489360.
# pDR5rev::GFP seedlings = experiment: Confocal microscopy of pDR5rev::GFP auxin marker line; format: in vivo, Arabidopsis
# Excerpt: To examine pDR5Rev::GFP fluorescence at the collet region, live seedlings were directly used for laser scanning confocal microscopy (Zeiss LSM 510 microscope) examination.
# For fluorescence intensity quantification of pDR5Rev::GFP and pPIN3::PIN3-GFP marker lines, ImageJ software (rsbweb.nih.gov/ij/) was used after taking confocal microscopy photos. All calculations are background subtracted.
compound,measurement,setting,value
"C\C(C=O)=C/C=C/C=C(\C)C=O [anchorene, 12,12′-diapocarotene-12,12′-dial]",genes with opposite effects of RAM excision and anchorene treatment,[1]; 20 μM anchorene,36 genes
same,genes with similar response to RAM excision and anchorene treatment,[1]; 20 μM anchorene,1459 genes
same,overlapping genes on which NPA and anchorene exert the opposite effect,"[1]; 20 μM anchorene, 1 μM NPA",2791 (83%) genes
same,overlapping genes whose expression level is affected by NPA and anchorene,"[1]; 20 μM anchorene, 1 μM NPA, 5 days",3355 genes
same,effect on auxin biosynthesis genes,[1]; anchorene application,induction of many auxin biosynthesis genes
same,"GFP signal in ANR primordia, combined NF/anchorene treatment",pDR5rev::GFP seedlings; 1 μM NF plus 20 μM anchorene,clearly enhanced
same,GFP signal at the collet / ANR primordia,"pDR5rev::GFP seedlings; single compound, 20 μM anchorene, 1 μM NF",strong GFP signal
